3 compounds from ChEMBL document CHEMBL5030544, “Synthesis, anti-microbial, toxicity and molecular docking studies of N-nitroso-N-phenylhydroxylamine (cupferron) and its derivatives” (Bioorg Med Chem Lett, 2021) can be followed below.

Activity calls are given as the source filed them. The calls are words filed in the database; no cut-off is given here.

Common to all, as to format: functional
Assay [1] has as its system Staphylococcus aureus. Put plainly: Antibacterial activity against Staphylococcus aureus […] assessed as bacterial growth inhibition.
The subject of assay [2] is Salmonella typhi. Put plainly: Antibacterial activity against Salmonella typhi ATCC 6539 assessed as bacterial growth inhibition.
Assay [3] deals with Staphylococcus aureus. Put plainly: Antibacterial activity against Staphylococcus aureus […] assessed as zone of inhibition at 5 mg/ml.
Assay [4] concerns Staphylococcus aureus. As to the kind of experiment: Antibacterial activity against Staphylococcus aureus […] assessed as zone of inhibition at 10 mg/ml. The conditions noted are these: for zone of inhibition at 10000 µg/mL: read-out: IZ.
The subject of assay [5] is Staphylococcus aureus. As to the kind of experiment: Antibacterial activity against Staphylococcus aureus […] assessed as zone of inhibition at 15 mg/ml. The settings on record: for zone of inhibition at 15000 µg/mL: read-out: IZ.
Assay [6] relates to Streptococcus pyogenes. As to the kind of experiment: Antibacterial activity against Streptococcus pyogenes ATCC 19615 assessed as zone of inhibition at 5 mg/ml. The settings on record: for zone of inhibition at 5000 µg/mL: read-out: IZ.
For assay [7], the system named is Streptococcus pyogenes. As to the kind of experiment: Antibacterial activity against Streptococcus pyogenes ATCC 19615 assessed as zone of inhibition at 10 mg/ml. The conditions noted are these: for zone of inhibition at 10000 µg/mL: read-out: IZ.
The test system of assay [8] is Streptococcus pyogenes. As to the kind of experiment: Antibacterial activity against Streptococcus pyogenes ATCC 19615 assessed as zone of inhibition at 15 mg/ml. The settings on record: for zone of inhibition at 15000 µg/mL: read-out: IZ.
For assay [9], the system named is Bacillus subtilis. As to the kind of experiment: Antibacterial activity against Bacillus subtilis ATCC 23857 assessed as zone of inhibition at 5 mg/ml. The settings on record: for zone of inhibition at 5000 µg/mL: read-out: IZ.
Assay [10] has as its system Bacillus subtilis. Put plainly: Antibacterial activity against Bacillus subtilis ATCC 23857 assessed as zone of inhibition at 10 mg/ml. The settings on record: for zone of inhibition at 10000 µg/mL: read-out: IZ.
The subject of assay [11] is Bacillus subtilis. Put plainly: Antibacterial activity against Bacillus subtilis ATCC 23857 assessed as zone of inhibition at 15 mg/ml. The conditions noted are these: for zone of inhibition at 15000 µg/mL: read-out: IZ.
The subject of assay [12] is Corynebacterium. Put plainly: Antibacterial activity against Corynebacterium ATCC 49368 assessed as zone of inhibition at 10 mg/ml.
Assay [13] concerns Corynebacterium. As to the kind of experiment: Antibacterial activity against Corynebacterium ATCC 49368 assessed as zone of inhibition at 15 mg/ml. The settings on record: for zone of inhibition at 15000 µg/mL: read-out: IZ.
In assay [14] the test system is Salmonella typhi. Put plainly: Antibacterial activity against Salmonella typhi ATCC 6539 assessed as zone of inhibition at 10 mg/kg. The settings on record: Salmonella enterica subsp. enterica serovar Typhi.
The test system of assay [15] is Salmonella typhi. As to the kind of experiment: Antibacterial activity against Salmonella typhi ATCC 6539 assessed as zone of inhibition at 15 mg/kg. The conditions noted are these: Salmonella enterica subsp. enterica serovar Typhi.
Assay [16] deals with Streptococcus pyogenes. As to the kind of experiment: Antibacterial activity against Streptococcus pyogenes ATCC 19615 assessed as bacterial growth inhibition.
The subject of assay [17] is Bacillus subtilis. As to the kind of experiment: Antibacterial activity against Bacillus subtilis ATCC 23857 assessed as bacterial growth inhibition.
Assay [18] has as its system Corynebacterium. As to the kind of experiment: Antibacterial activity against Corynebacterium ATCC 49368 assessed as bacterial growth inhibition.
Assay [19] concerns Escherichia coli. Put plainly: Antibacterial activity against Escherichia coli ATCC 25922 assessed as bacterial growth inhibition.
The test system of assay [20] is Klebsiella pneumoniae. Put plainly: Antibacterial activity against Klebsiella pneumoniae ATCC 13883 assessed as bacterial growth inhibition.
The test system of assay [21] is Corynebacterium. Put plainly: Antibacterial activity against Corynebacterium ATCC 49368 assessed as zone of inhibition at 5 mg/ml. The conditions noted are these: read-out: IZ.
For assay [22], the system named is Klebsiella pneumoniae. Put plainly: Antibacterial activity against Klebsiella pneumoniae ATCC 13883 assessed as zone of inhibition at 10 mg/kg. The conditions noted are these: read-out: IZ.
Assay [23] concerns Klebsiella pneumoniae. Put plainly: Antibacterial activity against Klebsiella pneumoniae ATCC 13883 assessed as zone of inhibition at 15 mg/kg. The conditions noted are these: read-out: IZ.
The test system of assay [24] is Pseudomonas aeruginosa. Put plainly: Antibacterial activity against Pseudomonas aeruginosa ATCC 27853 assessed as zone of inhibition at 10 mg/ml. The settings on record: read-out: IZ.
Assay [25] concerns Pseudomonas aeruginosa. As to the kind of experiment: Antibacterial activity against Pseudomonas aeruginosa ATCC 27853 assessed as zone of inhibition at 15 mg/ml. The settings on record: read-out: IZ.
[26] abbreviates: Salmonella enterica subsp. enterica serovar Typhi.

Consider GENTAMICIN, for which the results for the MIC in assay [1] and in [2] (setting [26]) were 8 µg/mL and 16 µg/mL, respectively. Further, the inhibition zone (IZ) in assay [3] came to 10 mm; in [4] it was 11 mm; in [5], 22 mm; in assay [6], 3 mm; in assay [7] it was 13 mm; in assay [8], 25 mm. Also, the inhibition zone (IZ) in assay [9] is 5 mm; in [10], 10 mm; in assay [11], 24 mm; in [12], 10 mm; in [13] it was 23 mm; in [14], 12 mm. For the same compound, in assay [15], the inhibition zone (IZ) came out at 26 mm.
Turning to `N.O=NN(O)c1ccccc1`, the MIC in assay [1] amounted to 20 µg/mL; in assay [16], 20 µg/mL; in assay [17], 16 µg/mL; in assay [18], 20 µg/mL; in [2] (Salmonella enterica), 20 µg/mL. Further, the MIC entry in assay [19], in assay [20] and in assay [3] was “inactive” in each case. Moreover, the zone of inhibition at 10000 µg/mL was determined as 9 mm in [4], 10 mm in assay [7] and 15 mm in [10]. Moreover, the zone of inhibition at 15000 µg/mL in assay [5] is 12 mm; in assay [8] it was 20 mm; in assay [11], 17 mm; in [13], 10 mm. The zone of inhibition at 5000 µg/mL was determined as 8 mm in [6] and 10 mm in assay [9].
Turning to `N.O=NN(O)c1ccc(CCl)cc1`, the MIC was 16 µg/mL in assay [1], 8 µg/mL in assay [16], 16 µg/mL in assay [17] and 16 µg/mL in assay [18]. The MIC result in assay [19], in assay [2] (setting [26]) and in [20] was “inactive” in each case. For the same compound, the zone of inhibition at 5000 µg/mL turned out to be 8 mm in [3] (read-out: IZ), 10 mm in [6], 10 mm in [9] and 13 mm in assay [21]. In addition, the zone of inhibition at 10000 µg/mL in assay [4] amounted to 12 mm; in [7], 12 mm; in assay [10] it was 14 mm; in assay [12] (read-out: IZ) it was 14 mm; in assay [24], 10 mm. The zone of inhibition at 15000 µg/mL came out at 20 mm in [5]; 18 mm in [8]; 18 mm in assay [11]; 17 mm in assay [13]; 15 mm in assay [25]. Also, the zone of inhibition at 10 mg/kg in assay [22] turned out to be 7 mm. For the same compound, in [23], the zone of inhibition at 15 mg/kg is 10 mm.

A word on the MIC: it is the lowest concentration found to suppress growth.
